Results: patent publication US7723376B2, “2-oxo-heterocyclic compounds and pharmaceutical compositions” (Korea Research Institute of Bioscience and Biotechnology, priority 2003, dated 2010)

Test system: PC-3 cells
Experiment: Tumor cell growth inhibition, sulforhodamine B (SRB) staining
Type: cell-based
Conditions: PC-3 human prostatic carcinoma cells, 48 hrs, absorbance 540 nm, adriamycin as positive control
Method: PC-3 cells (ATCC, US), human prostatic carcinoma cell line, were cultured in RMPI 1640 supplemented with 10% fetal bovine serum.
Appropriate concentrations of cells (5×10^4 cells/ml) cultured in RMPI 1640 supplemented with 5% fetal bovine serum were poured into 96-well plate and incubated at 37° C. in 5% CO2 condition. The day after the incubation, PC-3 cells were fixed on Time zero (T0) plate by adding 50 μl/well of 50% trichloroacetic acid and the cell concentration was set to zero point by fixing the cells. In the cells treated with test samples, 50% TCA was added to each wells in 50 ul/well after 48 hrs to fix the cells. The final concentration of adding test compounds were 0.01, 0.03, 0.1, 0.3, 1 μg/ml respectively. Then, each fixed plate was washed, dried and 100 μl/well of 0.4% reaction solution containing sulforhodamine B (SRB) reagent dissolved in 0.1% acetic acid was added thereto to stain the cells. 30 minutes later, the cell was washed with 0.1% acetic acid, dried at room temperature, and 10 mM of TRIS base (pH 10.5) was added thereto to dissolve the staining agent. Finally, the absorbance detected at 540 nm was measured and the value was conversed into percentage comparing with that of control group. IC50 (μg/ml), the concentration of the group required to inhibit the cancer cell growth by 50%, was calculated from the data (AA: IC50's<1, A: IC50's<5, B: IC50's<10 and C: IC50's>10). Also, the inhibiting activity of cell growth was expressed as various symbols in accordance with the potency of examples e.g., AA: closely equivalent (1˜2 times), A: slightly weaker (3˜5 times), B: weaker (5˜10 times), C: very weaker (more than 10 times) than that of adriamycin used as a positive control group.

With `Cc1ccc(CN2CC=C(CCC(=O)NO)C2=O)cc1` [Example 8, N-hydroxy-3-[1-(4-methyl-benzyl)-2-oxo-2,5-dihydro-1H-pyrrol-3-yl]-propionamide] the IC50 was under 5 µg/mL.
For `O=C(CC1CCN(Cc2ccccc2)C1=O)NO` (centres unmarked) [Example 25, 2-(1-benzyl-2-oxo-pyrrolidin-3-yl)-N-hydroxy-acetamide], the IC50 was over 10 µg/mL.
`COc1cccc(CN2CC=C(CCC(=O)NO)C2=O)c1` [Example 10, N-hydroxy-3-[1-(3-methoxy-benzyl)-2-oxo-2,5-dihydro-1H-pyrrol-3-yl]-propionamide] showed an IC50 of under 1 µg/mL.
`O=C(CCC1=CCN(Cc2ccc(NC(=O)c3ccccc3)cc2)C1=O)NO` [Example 18, N-{4-[3-(2-hydroxycarbamoyl-ethyl)-2-oxo-2,5-dihydro-pyrrole-1-yl-methyl]-phenyl}-benzamide] was tested, and the IC50 was under 10 µg/mL.
Work on `O=C(CC1=CCN(Cc2ccc(OCc3ccccc3)cc2)C1=O)NO` [Example 24, 2-[1-(4-benzyloxy-benzyl)-2-oxo-2,5-dihydro-1H-pyrrol-3-yl]-N-hydroxy-acetamide] yielded an IC50 of over 10 µg/mL.
`CC(C)c1ccc(CCCN2CC=C(CCC(=O)NO)C2=O)cc1` [Example 43, N-hydroxy-3-{1-[3-(4-isopropyl-phenyl)-propyl]-2-oxo-2,5-dihydro-1H-pyrrol-3-yl]-propionamide] was tested, and the IC50 was under 5 µg/mL.
With `Cc1cccc(CN2CC=C(CCC(=O)NO)C2=O)c1` [Example 7, N-hydroxy-3-[1-(3-methyl-benzyl)-2-oxo-2,5-dihydro-1H-pyrrol-3-yl]-propionamide] the IC50 was under 5 µg/mL.
`COc1ccc(CN2CCCC(CC(=O)NO)C2=O)c(OC)c1` (centres unmarked) [Example 92, 2-[1-(2,4-dimethoxy-benzyl)-2-oxo-piperidine-3-yl]-N-hydroxy-acetamide] showed an IC50 of over 10 µg/mL.
`COc1ccc(CCCN2CC=C(CCC(=O)NO)C2=O)cc1` [Example 46, N-hydroxy-3-{1-[3-(4-methoxy-phenyl)-propyl]-2-oxo-2,5-dihydro-1H-pyrrol-3-yl]-propionamide] gave an IC50 of under 10 µg/mL.
In the case of `O=C(CCC1=CCN(CCCc2ccc3ccccc3c2)C1=O)NO` [Example 56, N-hydroxy-3-[1-(3-naphthalene-2-yl-propyl)-2-oxo-2,5-dihydro-1H-pyrrol-3-yl]-propionamide], the Cell growth inhibition is reported as “AAA”.
In the case of `O=C(CCC1=CCN(CCc2cccc([N+](=O)[O-])c2)C1=O)NO` [Example 32, N-hydroxy-3-{1-[2-(3-nitro-phenyl)-ethyl]-2-oxo-2,5-dihydro-1H-pyrrol-3-yl}-propionamide], the IC50 is reported as under 5 µg/mL.
In the case of `O=C(CCC1=CCCN(Cc2ccc([N+](=O)[O-])cc2)C1=O)NO` [Example 59, N-hydroxy-3-[1-(4-nitro-benzyl)-2-oxo-1,2,5,6-tetrahydro-pyridin-3-yl)-propionamide], the IC50 is reported as under 10 µg/mL.
`O=C(CC1CCN(CCc2ccccc2)C1=O)NO` (centres unmarked) [Example 27, N-hydroxy-2-(2-oxo-1-phenethyl-pyrrolidin-3-yl)-acetamide] showed an IC50 of over 10 µg/mL.
With `CN1CCC=C(CCC(=O)NO)C1=O` [Example 102, N-hydroxy-3-(1-methyl-2-oxo-1,2,5,6-tetrahydro-pyridin-3-yl)-propionamide] the IC50 was over 10 µg/mL.
Work on `CC(=O)Nc1ccc(CN2CCC=C(CCC(=O)NO)C2=O)cc1` [Example 74, 3-[1-(4-acetylamino-benzyl)-2-oxo-1,2,5,6-tetrahydro-pyridin-3-yl)-N-hydroxy-propionamide] yielded an IC50 of over 10 µg/mL.
`O=C(CCC1=CCCN(CCc2ccccc2)C1=O)NOCc1ccccc1` [Example 73, N-benzyloxy-3-(2-oxo-1-phenethyl-1,2,5,6-tetrahydro-pyridin-3-yl)-propionamide] showed an IC50 of over 10 µg/mL.
With `COc1ccc(CN2CC=C(CCC(=O)NO)C2=O)c(OC)c1` [Example 1, 3-[1-(2,4-Dimethoxybenzyl)-2-oxo-2,5-dihydro-1H-pyrrol-3-yl]-N-hydroxypropionamide] the IC50 was under 5 µg/mL.
With `O=C(CCC1=CCCN(CCc2cccs2)C1=O)NO` [Example 104, N-hydroxy-3-[2-oxo-1-(2-thiophen-2-yl-ethyl)-1,2,5,6-tetrahydro-pyridin-3-yl]-propionamide] the IC50 was under 10 µg/mL.
With `O=C(CCC1=CCN(CCc2ccccc2Br)C1=O)NO` [Example 34, 3-{1-[2-(2-bromo-phenyl)-ethyl]-2-oxo-2,5-dihydro-1H-pyrrol-3-yl}-N-hydroxy-propionamide] the IC50 was under 5 µg/mL.
`O=C(CCC1=CCN(CCc2ccc3ccccc3c2)C1=O)NO` [Example 53, N-hydroxy-3-[1-(2-naphthalene-2-yl-ethyl)-2-oxo-2,5-dihydro-1H-pyrrol-3-yl]-propionamide] showed an IC50 of under 1 µg/mL.
`O=C(CC1=CCCN(Cc2ccccc2)C1=O)NO` [Example 83, 2-(1-benzyl-2-oxo-1,2,5,6-tetrahydro-pyridin-3-yl)-N-hydroxy-acetamide] showed an IC50 of over 10 µg/mL.
For `O=C(CCC1=CCCN(Cc2ccc(NC(=O)c3ccccc3)cc2)C1=O)NO` [Example 75, N-4-[5-(2-hydroxycarbamoyl-ethyl)-6-oxo-3,6-dihydro-2-pyridin-1-yl-methyl]-phenyl-benzamide], the IC50 was under 10 µg/mL.
`O=C(CC1=CCN(Cc2ccccc2)C1=O)NO` [Example 20, 2-(1-benzyl-2-oxo-2,5-dihydro-1H-pyrrol-3-yl)-N-hydroxy-acetamide] was tested, and the IC50 was over 10 µg/mL.
For `O=C(CCC1=CCN(CCc2ccccc2)C1=O)NO` [Example 3, N-hydroxy-3-(2-oxo-1-phenethyl-2,5-dihydro-1H-pyrrol-3-yl)-propionamide], the IC50 was under 1 µg/mL.
In the case of `COc1ccc(CN2CC=C(CC(=O)NO)C2=O)c(OC)c1` [Example 21, 2-[1-(2,4-dimethoxy-benzyl)-2-oxo-2,5-dihydro-1H-pyrrol-3-yl]-N-hydroxy-acetamide], the IC50 is reported as over 10 µg/mL.
In the case of `COc1cccc(CCN2CC=C(CCC(=O)NO)C2=O)c1` [Example 37, N-hydroxy-3-{1-[2-(3-methoxy-phenyl)-ethyl]-2-oxo-2,5-dihydro-1H-pyrrol-3-yl}-propionamide], the IC50 is reported as under 5 µg/mL.
`COc1ccc(CCN2CC=C(CCC(=O)NO)C2=O)cc1` [Example 38, N-hydroxy-3-{1-[2-(4-methoxy-phenyl)-ethyl]-2-oxo-2,5-dihydro-1H-pyrrol-3-yl}-propionamide] showed an IC50 of under 5 µg/mL.
`Cc1ccccc1CCCN1CC=C(CCC(=O)NO)C1=O` [Example 41, N-hydroxy-3-[2-oxo-1-(3-o-tolyl-propyl)-2,5-dihydro-1H-pyrrol-3-yl]-propionamide] gave an IC50 of under 10 µg/mL.
For `Cc1cccc(CCCN2CC=C(CCC(=O)NO)C2=O)c1` [Example 42, N-hydroxy-3-[2-oxo-1-(3-m-tolyl-propyl)-2,5-dihydro-1H-pyrrol-3-yl]-propionamide], the IC50 was under 1 µg/mL.
`O=C(CCC1=CCCN(Cc2ccccc2)C1=O)Nc1ccccn1` [Example 69, 3-(1-benzyl-2-oxo-1,2,5,6-tetrahydro-pyridin-3-yl)-N-pyridin-2-yl-propionamide] showed an IC50 of over 10 µg/mL.
`O=C(CCC1=CCN(CCc2ccc([N+](=O)[O-])cc2)C1=O)NO` [Example 33, N-hydroxy-3-{1-[2-(4-nitro-phenyl)-ethyl]-2-oxo-2,5-dihydro-1H-pyrrol-3-yl}-propionamide] gave an IC50 of under 5 µg/mL.
`Cc1ccc(CCN2CC=C(CCC(=O)NO)C2=O)cc1` [Example 39, N-hydroxy-3-[2-oxo-1-(2-p-tolyl-ethyl)-2,5-dihydro-1H-pyrrol-3-yl]-propionamide] showed an IC50 of under 5 µg/mL.
For `O=C(O)CCC1=CCCN(Cc2ccc([N+](=O)[O-])cc2)C1=O` [Example 65, 3-[1-(4-nitro-benzyl)-2-oxo-1,2,5,6-tetrahydro-pyridin-3-yl)-propionic acid], the IC50 was over 10 µg/mL.
Compound `O=C(CCC1=CCCCN(CCCCc2ccccc2)C1=O)NO` [Example 108, N-Hydroxy-3-[2-oxo-1-(4-phenyl-butyl)-2,5,6,7-tetrahydro-1H-azepin-3-yl]-propionamide] has an IC50 of over 10 µg/mL.
With `COc1ccc(CN2CCC=C(CCCC(=O)NO)C2=O)cc1` [Example 95, 4-[1-(4-methoxy-benzyl)-2-oxo-1,2,5,6-tetrahydro-pyridin-3-yl]-N-hydroxy-butylamide] the IC50 was over 10 µg/mL.
In the case of `COc1ccccc1CN1CC=C(CCC(=O)NO)C1=O` [Example 9, N-hydroxy-3-[1-(2-methoxy-benzyl)-2-oxo-2,5-dihydro-1H-pyrrol-3-yl]-propionamide], the IC50 is reported as under 5 µg/mL.
Work on `O=C(CCC1=CCN(CCc2ccccc2F)C1=O)NO` [Example 28, 3-{1-[2-(2-fluoro-phenyl)-ethyl]-2-oxo-2,5-dihydro-1H-pyrrol-3-yl}-N-hydroxy-propionamide] yielded an IC50 of under 5 µg/mL.
`C=CCN1CCC=C(CCC(=O)NO)C1=O` [Example 101, 3-(1-Allyl-2-oxo-1,2,5,6-tetrahydro-pyridin-3-yl)-N-hydroxy-propionamide] gave an IC50 of over 10 µg/mL.
With `O=C(CCC1=CCN(CCc2cccs2)C1=O)NO` [Example 54, N-hydroxy-3-[2-oxo-1-(2-thiophen-2-yl-ethyl)-2,5-dihydro-1H-pyrrol-3-yl]-propionamide] the IC50 was under 5 µg/mL.
Compound `O=C(O)CCC1=CCN(Cc2ccccc2)C1=O` [Example 17, 3-(1-benzyl-2-oxo-2,5-dihydro-1H-pyrrol-3-yl)-propionic acid] has an IC50 of over 10 µg/mL.
`O=C(CCC1=CCCN(Cc2ccccc2)C1=O)NO` [Example 58, N-hydroxy-3-(1-benzyl-2-oxo-1,2,5,6-tetrahydro-pyridin-3-yl)-propionic acid] gave an IC50 of under 10 µg/mL.
